Assay results from US20260053759A1, “MESDOPETAM COMPOSITIONS” (ALKEM LABORATORIES LIMITED, priority 2022, published 2026).

Key:
[1] = main metabolites in man, present in plasma and urine; cited from earlier work
[2] = system: rat stomachs; assay: Gastric emptying in the rat model (phenol red method); assay type: in vivo, Male Wistar rats; conditions: mean ± SEM
Experimental: This study aimed to investigate the prokinetic effects of Mesdopetam, a dopamine receptor antagonist, on rat stomachs by assessing gastric emptying at three different doses: 1.24 mg/kg, 2.48 mg/kg, and 3.72 mg/kg. Male Wistar rats were used as the animal model. Gastric emptying time was measured at specific time intervals post-administration, and the results were compared to determine the impact of Mesdopetam on gastric motility.
• Animal Model: Male Wistar rats (250-300 g) were used for the study. • Drug Administration: Mesdopetam was administered orally to rats at three different doses: 1.24 mg/kg, 2.48 mg/kg, and 3.72 mg/kg. The control group received a placebo. • Experimental Groups: Rats were divided into four groups: control (receiving placebo) and three treatment groups (receiving Mesdopetam at the respective doses). • Measurement of Gastric Emptying: Gastric emptying time was measured using a non-invasive method, such as the phenol red method. Rats were fasted overnight before the experiment, and the drug was administered following the fasting period. • Data Collection: Gastric emptying time was recorded at specific time points post-treatment: 1 hour, 2 hours, 4 hours, and 8 hours. • Statistical Analysis: The data were analyzed using appropriate statistical tests (e.g., one-way ANOVA followed by post hoc tests) to determine significant differences in gastric emptying time between the control and treatment groups at each dose level.
The results of the study are presented as mean gastric emptying time (in minutes) for each group at different time points post-treatment: […]

[3] = target: dopamine D3 receptor (D3R) (Homo sapiens, UniProt P35462); conditions: antagonist; cited from earlier work
Sequence of dopamine D3 receptor (D3R) (P35462 whole entry): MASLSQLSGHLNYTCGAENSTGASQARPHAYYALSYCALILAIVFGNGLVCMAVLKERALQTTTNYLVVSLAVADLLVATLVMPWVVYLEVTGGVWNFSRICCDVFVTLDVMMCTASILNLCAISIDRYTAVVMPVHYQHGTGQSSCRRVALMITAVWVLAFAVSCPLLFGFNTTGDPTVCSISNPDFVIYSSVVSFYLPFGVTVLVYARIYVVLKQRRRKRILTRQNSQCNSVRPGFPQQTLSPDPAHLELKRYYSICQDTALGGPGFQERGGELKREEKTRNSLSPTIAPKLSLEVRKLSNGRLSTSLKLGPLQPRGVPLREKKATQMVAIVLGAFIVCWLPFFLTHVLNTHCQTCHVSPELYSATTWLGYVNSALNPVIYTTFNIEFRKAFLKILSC

[4] = cited from earlier work

For `CS(=O)(=O)c1cc(F)cc(OCCN)c1` [M1], the “pharmacological activity of metabolite” value [1] is given as “pharmacologically inactive”.

In the case of `CC(=O)NCCOc1cc(F)cc(S(C)(=O)=O)c1` [M2], the “pharmacological activity of metabolite” value [1] is listed as “pharmacologically inactive”.

In the case of `CCCNCCOc1cc(F)cc(S(C)(=O)=O)c1` [Mesdopetam, [2-(3-fluoro-5-methylsulfonylphenoxy)ethyl]propan-1-amine], the “mean gastric emptying time” value ([2]; 1.24 mg/kg oral, 1 hour post-treatment) is reported as 38.5 ± 1.8 min, the “mean gastric emptying time” value ([2]; 1.24 mg/kg oral, 2 hours post-treatment) is reported as 32.4 ± 1.5 min and the “mean gastric emptying time” value ([2]; 1.24 mg/kg oral, 4 hours post-treatment) is reported as 27.9 ± 1.3 min. The “mean gastric emptying time” value ([2]; 1.24 mg/kg oral, 8 hours post-treatment) was 24.6 ± 1.1 min, the “mean gastric emptying time” value ([2]; 2.48 mg/kg oral, 1 hour post-treatment) was 32.1 ± 1.6 min and the “mean gastric emptying time” value ([2]; 2.48 mg/kg oral, 2 hours post-treatment) was 26.9 ± 1.4 min. The “mean gastric emptying time” value ([2]; 2.48 mg/kg oral, 4 hours post-treatment) was 23.4 ± 1.2 min, the “mean gastric emptying time” value ([2]; 2.48 mg/kg oral, 8 hours post-treatment) was 19.8 ± 1.0 min and the “mean gastric emptying time” value ([2]; 3.72 mg/kg oral, 1 hour post-treatment) was 29.6 ± 1.4 min. For the same molecule, the “mean gastric emptying time” value ([2]; 3.72 mg/kg oral, 2 hours post-treatment) was 23.8 ± 1.2 min, the “mean gastric emptying time” value ([2]; 3.72 mg/kg oral, 4 hours post-treatment) was 20.3 ± 1.0 min and the “mean gastric emptying time” value ([2]; 3.72 mg/kg oral, 8 hours post-treatment) was 17.5 ± 0.9 min. For the same molecule, the Ki [3] was roughly 90 nM.

In the case of `CCN(CC)CCNC(=O)c1cc(Cl)c(N)cc1OC` [metoclopramide], the “incidence of extrapyramidal reactions” value ([4]; aged and young patients) is given as no more than 25% and the “reported incidence of extrapyramidal reactions” value ([4]; overall) is given as 0.2%.
